Earlier results in patent US20160015711A1, “CALCIUM PTERIN-6-CARBOXYLATE (CaPTERIN-6-COOH) AS A NOVEL IMMUNO-THERAPEUTIC” (SanRx Pharmaceuticals, Inc., priority 2014, published 2016).

Conditions: pH <4

Question: With `Nc1nc([O-])c2nccnc2n1.Nc1nc([O-])c2nccnc2n1.[Ca+2]` [DCP, dipterinyl calcium pentahydrate] as the compound, how does the “stability under acidic conditions” value read?
Answer: Its value is “breaks down to form CaPterin”.
